# Like-named read-outs stand apart in the source and are kept apart here.
# Assays:
# [1] = molecular target: CYP3A4 (Homo sapiens, UniProt P08684); test: CYP inhibition in human hepatomicrosomes, CYP3A4
# [2] = molecular target: CYP2D6 (Homo sapiens, UniProt P10635); test: CYP inhibition in human hepatomicrosomes, CYP2D6
# [3] = tested on: SK-BR-3; test: Inhibition of proliferation of SK-BR-3 cells by compounds (CellTiter-Glo, 72 h); type: cell-based; conditions: Homo sapiens, SK-BR-3, 72 h, SK-BR-3, 72 h incubation
# Summary of the method: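 SK-BR-3 cells plated in 384-well format, allowed to adhere, then exposed to compound (0.33% DMSO final) for 72 h at 37 °C, 5% CO2. Viability read by CellTiter-Glo luminescence; IC50 from four-parameter nonlinear fit.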
# [4] = Stability of compounds in human plasma; type: in vitro ADME; conditions: 37°C, 5 µmol/L, read-out: Residual percentage (%)
# [5] = molecular target: CYP1A2 (Homo sapiens, UniProt P05177); test: CYP inhibition in human hepatomicrosomes, CYP1A2
# Chain of CYP1A2 (P05177 whole entry): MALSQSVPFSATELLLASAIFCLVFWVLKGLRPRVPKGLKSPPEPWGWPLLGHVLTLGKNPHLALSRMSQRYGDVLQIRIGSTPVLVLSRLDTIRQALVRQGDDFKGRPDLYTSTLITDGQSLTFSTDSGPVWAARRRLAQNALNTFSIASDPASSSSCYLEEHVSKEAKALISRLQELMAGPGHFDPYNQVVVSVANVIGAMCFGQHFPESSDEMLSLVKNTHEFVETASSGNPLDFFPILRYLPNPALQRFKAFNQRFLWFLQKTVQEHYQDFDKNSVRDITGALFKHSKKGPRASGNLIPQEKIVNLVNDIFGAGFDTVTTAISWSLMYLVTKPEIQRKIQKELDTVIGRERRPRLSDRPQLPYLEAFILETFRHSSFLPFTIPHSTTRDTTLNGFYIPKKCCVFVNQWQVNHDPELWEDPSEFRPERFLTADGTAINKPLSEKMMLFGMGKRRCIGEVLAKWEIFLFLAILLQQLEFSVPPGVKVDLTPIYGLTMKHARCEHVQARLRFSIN
# Chain of CYP3A4 (P08684 whole entry): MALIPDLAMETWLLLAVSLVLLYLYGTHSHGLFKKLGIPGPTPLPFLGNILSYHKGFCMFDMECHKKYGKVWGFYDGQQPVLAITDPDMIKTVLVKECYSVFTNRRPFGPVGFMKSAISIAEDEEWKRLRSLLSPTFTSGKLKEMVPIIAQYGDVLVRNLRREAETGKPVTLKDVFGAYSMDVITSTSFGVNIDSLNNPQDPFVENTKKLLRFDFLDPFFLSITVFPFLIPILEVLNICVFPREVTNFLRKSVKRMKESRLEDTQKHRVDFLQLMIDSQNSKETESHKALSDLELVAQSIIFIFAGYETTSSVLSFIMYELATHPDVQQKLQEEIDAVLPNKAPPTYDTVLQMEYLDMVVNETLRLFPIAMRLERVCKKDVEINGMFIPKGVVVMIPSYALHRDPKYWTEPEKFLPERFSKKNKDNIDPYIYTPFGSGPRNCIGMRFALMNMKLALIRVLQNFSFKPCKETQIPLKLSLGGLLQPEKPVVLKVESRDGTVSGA
# Chain of CYP2D6 (P10635 whole entry): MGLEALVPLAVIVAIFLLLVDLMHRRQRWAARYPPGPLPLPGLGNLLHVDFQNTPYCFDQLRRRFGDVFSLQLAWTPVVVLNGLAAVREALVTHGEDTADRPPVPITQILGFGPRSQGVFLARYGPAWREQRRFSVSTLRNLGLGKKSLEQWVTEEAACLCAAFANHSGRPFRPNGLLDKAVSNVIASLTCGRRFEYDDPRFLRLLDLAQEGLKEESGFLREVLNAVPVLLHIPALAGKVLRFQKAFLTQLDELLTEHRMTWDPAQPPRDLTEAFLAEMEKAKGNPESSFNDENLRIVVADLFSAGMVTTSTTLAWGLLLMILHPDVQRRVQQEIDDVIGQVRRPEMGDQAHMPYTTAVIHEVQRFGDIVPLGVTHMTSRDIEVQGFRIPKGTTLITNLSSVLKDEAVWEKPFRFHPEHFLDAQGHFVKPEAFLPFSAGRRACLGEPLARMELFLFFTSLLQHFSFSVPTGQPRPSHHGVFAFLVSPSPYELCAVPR
compound,measurement,setting,value
CC[C@@]1(O)C(=O)OCc2c1cc1n(c2=O)Cc2c-1nc1cc(F)c(C)c3c1c2[C@@H](NC(=O)CO)CC3 [Dxd],IC50,[1],> 30 µM
same,IC50,"[1]; read-out: 3A4M (IC50 µM), human hepatomicrosomes, substrate Midazolam",> 30 µM
same,IC50,[2],> 30 µM
same,IC50,[3],0.011 µM
same,"remaining at 4 h, 5 µM",[4],83.6%
same,IC50,[5],> 30 µM
